Assays:
Assay in all cases: 96-well microtiter plate assay, fungal growth inhibition
B. cinerea = assay type: cell-based, Botrytis cinerea; conditions: B. cinerea
From the text: (§1) Pathogen production. Isolates of Colletotrichum acutatum Simmonds, Colletotrichum fragariae Brooks, and Colletotrichum gloeosporioides (Penz.) Penz. & Sacc. in Penz. were obtained from B. J. Smith, USDA, ARS, Small Fruit Research Station, Poplarville, Miss. Colletotrichum fragariae (isolate CF63), C. acutatum (isolate CAGoff), and C. gloeosporioides (isolate CG162) were used for all pathogen and bioautography studies. Isolate CF63 is one of the most virulent isolates at infecting strawberry plants and inducing both crown and fruit rot (Smith and Black, 1990). CF63, CAGoff, and CG162 were used as standard test isolates because of our extensive knowledge of these isolates and their known fungicide sensitivity profiles in both bioautography and microtiter formats. The three Colletotrichum species were isolated from strawberry (Fragaria x ananassa Duchesne). Botrytis cinerea Pers.: Fr, was isolated from commercial grape (Vitis vinifera L.) and Fusarium oxysporum Schlechtend: Fr from orchid (Cynoches sp.). Phomopsis viticola (Sacc.) and P. obscurans (Ellis & Everh.) Sutton were from Mike A. Ellis, Ohio State University, Wooster, Ohio. Fungi were grown on potato-dextrose agar (PDA, Difco, Detroit, Mich.) in 9 cm petri dishes and incubated in a growth chamber at 24±2° C. and under cool-white fluorescent lights ([…]·m^−2·sec^−1 light) with 12 hour photoperiod.
(§2) Inoculum preparation. Conidia were harvested from 7-10 day-old cultures by flooding plates with 5 mL of sterile distilled water and dislodging conidia by softly brushing the colonies with an L-shaped glass rod. Conidial suspensions were filtered through sterile miracloth (Calbiochem-Novabiochem Corp., La Jolla, Calif.) to remove mycelia. Conidia concentrations were determined photometrically, from a standard curve based on the percent of transmittance (% T) at 625 nm and suspensions were then adjusted with sterile distilled water to a concentration of 1.0×10^6 conidia/mL.
(§3) Microtiter assay. A standardized 96-well microtiter plate assay developed for discovery of natural product fungicidal agents was used to evaluate naturally occurring antifungal agents from Macaranga monanara. A 96-well microtiter assay was used to determine sensitivity of B. cinerea, C. acutatum, C. fragariae, C. gloeosporioides, F. oxysporum, Phomopsis viticola, and P. obscurans to the various antifungal agents in comparison with known fungicidal standards. Vinclozolin, captan, and thiabendazole, which represent three different modes of action, were used as standards in this experiment. Each fungus was challenged in a dose-response format using test compounds where the final treatment concentrations were 0.3, 3.0 and 30.0 μM. Microtiter plates (Nunc MicroWell, untreated; Roskilde, Denmark) were covered with a plastic lid and incubated in a growth chamber as described previously for fungal growth. Growth was then evaluated by measuring absorbance of each well at 620 nm using a microplate photometer (Packard Spectra Count, Packard Instrument Co., Downers Grove, Ill.). Microtiter plates (Nunc MicroWell, untreated; Roskilde, Denmark) were covered with a plastic lid and incubated in a growth chamber at 24±1° C. and 12 hour photoperiod under 60±5 μmol light. Growth was then evaluated by measuring absorbance of each well at 620 nm using a microplate photometer (Packard Spectra Count, Packard Instrument Co., Downers Grove, Ill.).
(§4) Microbioassy Experimental Design. Chemical sensitivity each of B. cinerea, C. acutatum, C. fragariae, C. gloeosporiodes, F. oxysporum, Phomopsis viticola, and P. obscurans was evaluated using 96-well plate microbioassay format. Each chemical was evaluated in duplicate at each dose (0.3, 3.0 and 30.0 μM). […]

C. fragariae = assay type: cell-based, Colletotrichum fragariae; conditions: C. fragariae
From the text: as §1, §2, §3, §4

C. acutatum = assay type: cell-based, Colletotrichum acutatum; conditions: C. acutatum
From the text: as §1, §2, §3, §4

F. oxysporum = assay type: cell-based, Fusarium oxysporum; conditions: F. oxysporum
From the text: as §1, §2, §3, §4

C. gloeosporioides = assay type: cell-based, Colletotrichum gloeosporioides; conditions: C. gloeosporioides
From the text: as §1, §2, §3, §4

## CO/N=C(/C(=O)OC)c1ccccc1COc1ccccc1C [BAS 490]
B. cinerea; 0.3 μM, 48 hrs
  Percent inhibition−Percent Stimulation±SEM: −71.3 ± 28.0%
B. cinerea; 0.3 μM, 72 hrs
  Percent inhibition−Percent Stimulation±SEM: −66.6 ± 21.5%
B. cinerea; 3.0 μM, 48 hrs
  Percent inhibition−Percent Stimulation±SEM: −24.0 ± 32.0%
B. cinerea; 3.0 μM, 72 hrs
  Percent inhibition−Percent Stimulation±SEM: −37.2 ± 20.2%
B. cinerea; 30 μM, 48 hrs
  Percent inhibition−Percent Stimulation±SEM: −60.1 ± 32.9%
B. cinerea; 30 μM, 72 hrs
  Percent inhibition−Percent Stimulation±SEM: −40.9 ± 17.6%
C. fragariae; 0.3 μM, 48 hrs
  Percent inhibition−Percent Stimulation±SEM: −68.8 ± 7.1%
C. fragariae; 0.3 μM, 72 hrs
  Percent inhibition−Percent Stimulation±SEM: −35.6 ± 5.6%
C. fragariae; 3.0 μM, 48 hrs
  Percent inhibition−Percent Stimulation±SEM: −86.4 ± 3.5%
C. fragariae; 3.0 μM, 72 hrs
  Percent inhibition−Percent Stimulation±SEM: −71.9 ± 3.5%
C. fragariae; 30 μM, 48 hrs
  Percent inhibition−Percent Stimulation±SEM: −91.5 ± 1.7%
C. fragariae; 30 μM, 72 hrs
  Percent inhibition−Percent Stimulation±SEM: −80.4 ± 1.4%
C. acutatum; 0.3 μM, 48 hrs
  Percent inhibition−Percent Stimulation±SEM: −63.9 ± 3.8%
C. acutatum; 0.3 μM, 72 hrs
  Percent inhibition−Percent Stimulation±SEM: −17.8 ± 3.5%
C. acutatum; 3.0 μM, 48 hrs
  Percent inhibition−Percent Stimulation±SEM: −93.1 ± 0.6%
C. acutatum; 3.0 μM, 72 hrs
  Percent inhibition−Percent Stimulation±SEM: 14.7 ± 2.5%
C. acutatum; 30 μM, 48 hrs
  Percent inhibition−Percent Stimulation±SEM: −95.1 ± 0.7%
C. acutatum; 30 μM, 72 hrs
  Percent inhibition−Percent Stimulation±SEM: −69.9 ± 2.6%
F. oxysporum; 0.3 μM, 48 hrs
  Percent inhibition−Percent Stimulation±SEM: −82.3 ± 3.0%
F. oxysporum; 0.3 μM, 72 hrs
  Percent inhibition−Percent Stimulation±SEM: −30.3 ± 6.9%
F. oxysporum; 3.0 μM, 48 hrs
  Percent inhibition−Percent Stimulation±SEM: −92.7 ± 0.6%
F. oxysporum; 3.0 μM, 72 hrs
  Percent inhibition−Percent Stimulation±SEM: −65.5 ± 1.6%
F. oxysporum; 30 μM, 48 hrs
  Percent inhibition−Percent Stimulation±SEM: −94.7 ± 0.5%
F. oxysporum; 30 μM, 72 hrs
  Percent inhibition−Percent Stimulation±SEM: −69.5 ± 2.0%
C. gloeosporioides; 0.3 μM, 48 hrs
  Percent inhibition−Percent Stimulation±SEM: −83.3 ± 3.2%
C. gloeosporioides; 0.3 μM, 72 hrs
  Percent inhibition−Percent Stimulation±SEM: −58.7 ± 5.0%
C. gloeosporioides; 3.0 μM, 48 hrs
  Percent inhibition−Percent Stimulation±SEM: −92.4 ± 1.5%
C. gloeosporioides; 3.0 μM, 72 hrs
  Percent inhibition−Percent Stimulation±SEM: −82.6 ± 3.4%
C. gloeosporioides; 30 μM, 48 hrs
  Percent inhibition−Percent Stimulation±SEM: −97.5 ± 1.0%
C. gloeosporioides; 30 μM, 72 hrs
  Percent inhibition−Percent Stimulation±SEM: −89.7 ± 1.9%

## O=C1c2ccccc2-c2nccc3c2c1nc1ccccc13 [Benzo[4,5]sampangine, benzo[4,5]sampangine]
B. cinerea; 0.3 μM, 48 hrs
  Percent inhibition−Percent Stimulation±SEM: −70.2 ± 5.8%
B. cinerea; 0.3 μM, 72 hrs
  Percent inhibition−Percent Stimulation±SEM: −55.2 ± 8.1%
B. cinerea; 3.0 μM, 48 hrs
  Percent inhibition−Percent Stimulation±SEM: −78.0 ± 3.6%
B. cinerea; 3.0 μM, 72 hrs
  Percent inhibition−Percent Stimulation±SEM: −46.7 ± 10.2%
B. cinerea; 30 μM, 48 hrs
  Percent inhibition−Percent Stimulation±SEM: −99.2 ± 19.4%
B. cinerea; 30 μM, 72 hrs
  Percent inhibition−Percent Stimulation±SEM: −22.8 ± 14.7%
C. fragariae; 0.3 μM, 48 hrs
  Percent inhibition−Percent Stimulation±SEM: −38.4 ± 6.1%
C. fragariae; 0.3 μM, 72 hrs
  Percent inhibition−Percent Stimulation±SEM: −19.8 ± 7.7%
C. fragariae; 3.0 μM, 48 hrs
  Percent inhibition−Percent Stimulation±SEM: −72.4 ± 8.5%
C. fragariae; 3.0 μM, 72 hrs
  Percent inhibition−Percent Stimulation±SEM: −54.7 ± 11.2%
C. fragariae; 30 μM, 48 hrs
  Percent inhibition−Percent Stimulation±SEM: −52.9 ± 6.5%
C. fragariae; 30 μM, 72 hrs
  Percent inhibition−Percent Stimulation±SEM: −29.4 ± 6.8%
C. acutatum; 0.3 μM, 48 hrs
  Percent inhibition−Percent Stimulation±SEM: −30.5 ± 10.2%
C. acutatum; 0.3 μM, 72 hrs
  Percent inhibition−Percent Stimulation±SEM: −25.9 ± 8.0%
C. acutatum; 3.0 μM, 48 hrs
  Percent inhibition−Percent Stimulation±SEM: −74.2 ± 6.3%
C. acutatum; 3.0 μM, 72 hrs
  Percent inhibition−Percent Stimulation±SEM: −46.2 ± 5.2%
C. acutatum; 30 μM, 48 hrs
  Percent inhibition−Percent Stimulation±SEM: −57.0 ± 10.0%
C. acutatum; 30 μM, 72 hrs
  Percent inhibition−Percent Stimulation±SEM: −38.9 ± 5.2%
F. oxysporum; 0.3 μM, 48 hrs
  Percent inhibition−Percent Stimulation±SEM: −48.2 ± 4.4%
F. oxysporum; 0.3 μM, 72 hrs
  Percent inhibition−Percent Stimulation±SEM: −17.1 ± 2.0%
F. oxysporum; 3.0 μM, 48 hrs
  Percent inhibition−Percent Stimulation±SEM: −77.7 ± 5.7%
F. oxysporum; 3.0 μM, 72 hrs
  Percent inhibition−Percent Stimulation±SEM: −27.2 ± 6.2%
F. oxysporum; 30 μM, 48 hrs
  Percent inhibition−Percent Stimulation±SEM: −57.9 ± 3.2%
F. oxysporum; 30 μM, 72 hrs
  Percent inhibition−Percent Stimulation±SEM: −27.2 ± 1.9%
C. gloeosporioides; 0.3 μM, 48 hrs
  Percent inhibition−Percent Stimulation±SEM: −100.0 ± 1.0%
C. gloeosporioides; 0.3 μM, 72 hrs
  Percent inhibition−Percent Stimulation±SEM: −100.0 ± 0.3%
C. gloeosporioides; 3.0 μM, 48 hrs
  Percent inhibition−Percent Stimulation±SEM: −98.6 ± 1.1%
C. gloeosporioides; 3.0 μM, 72 hrs
  Percent inhibition−Percent Stimulation±SEM: −99.7 ± 0.4%
C. gloeosporioides; 30 μM, 48 hrs
  Percent inhibition−Percent Stimulation±SEM: −100.0 ± 1.8%
C. gloeosporioides; 30 μM, 72 hrs
  Percent inhibition−Percent Stimulation±SEM: −100.0 ± 0.9%
